Assay: in vitro
Details: human, plasma, PPB

SMILES	fraction unbound at 5 h
COc1cccc(-c2cc3c(N[C@H]4CCCNC4)ncc(C(N)=O)c3s2)c1	0.0437
O=C(COc1ccccc1Cl)c1ccc[nH]1	0.0676
CNC(=O)c1[nH]cnc1C(=O)Nc1ccc(Cl)cc1	0.0268
COc1cccc(C(=O)N2C(C(=O)O)CSC2c2ccccc2Cl)c1 (stereo not drawn)	0.0139
O=C(CCS(=O)(=O)c1ccc(Br)cc1)NCCc1ccccc1	0.04
O=C(c1ccccc1)N1CCC(c2nc3ccccc3o2)CC1	0.0457
C[C@H](Nc1ncc(Cl)c(Nc2cc(C3CC3)[nH]n2)n1)c1ncc(F)cn1	0.0568
Cc1cc(Nc2nc(N[C@@H](C)c3ncc(F)cn3)nc(N3CCOCC3)c2F)n[nH]1	0.0836
CCOc1cc2nnc(C(N)=O)c(Nc3ccc(F)cc3F)c2cc1N1CCN(C)CC1	0.0383
COc1ccc(Cl)cc1NC(=O)CCS(=O)(=O)c1ccc(C)cc1	0.0219
COc1ccc2c(c1)N(CCN1CCC(NCc3cc4c(cn3)OCCO4)CC1)C(=O)CS2	0.0948
CN[C@@H](C)C(=O)N[C@H](C(=O)N[C@H]1CCCN(CCc2ccc(Cl)cc2)C1)C(C)(C)C	0.0293
CN[C@@H](C)C(=O)N[C@H](C(=O)N[C@H]1CCCN(CCc2ccc(Br)cc2)C1)C(C)(C)C	0.0229
COc1cc(OC)c(S(=O)(=O)N2c3ccccc3CC2C)cc1NC(C)=O (stereo not drawn)	0.0437
CNc1c(Br)cnc2[nH]c(-c3ccc(OCCN4CCOCC4)cc3)nc12	0.0149
O=C(O)/C=C/c1cccc(-c2cnc3[nH]ccc3c2)c1	0.0219
CCCNC(=O)c1cc2c(-n3ccc(C(F)(F)F)n3)c(-c3cncc(C(=O)O)c3)cnc2[nH]1	0.0768
CC(=O)Nc1ccc2c(c1)N(c1cc(NC3CC3)n3ncc(C#N)c3n1)CCO2	0.0752
CC(=O)Nc1ccc2c(c1)c(-c1cc(NC3CC3)n3ncc(C#N)c3n1)cn2CCO	0.0179
COC(=O)CCn1cc(-c2cc(NC3CC3)n3ncc(C#N)c3n2)c2cc(NC(C)=O)ccc21	0.016
COc1ncc(-c2cccc3c2C[C@H](NC(=O)c2ccc(OCCC(F)(F)F)nc2)CO3)cn1	0.0133
CC(C)(C)Oc1ccc(C(=O)Nc2ccc3sc(CO)nc3c2)cc1	0.051
O=C(O)COc1ccccc1N1CCC(CN2CCC(Oc3ccc(Cl)c(Cl)c3)CC2)CC1	0.0114
Cc1cn([C@H]2CCCN(Cc3ccc(C(=O)O)c(Oc4cccc(Cl)c4)c3)C2)c(=O)[nH]c1=O	0.0268
Cc1cccc(Oc2cc(CN3CCC[C@H](n4cc(C)c(=O)[nH]c4=O)C3)ccc2C(=O)O)c1	0.0383
COc1cc(OC)c(S(=O)(=O)N2c3ccccc3CCC2C)cc1NC(=O)Cc1ccnc(F)c1 (stereo not drawn)	0.0544

SMILES	fraction unbound at 5 h
O=C(NC[C@@H](O)CN1CCC(Oc2ccc(Cl)c(Cl)c2)CC1)c1c[nH]c(=O)c2cc(F)ccc12	0.0108
COc1cc(OC)c(S(=O)(=O)N2c3ccccc3Oc3ccccc32)cc1NC(=O)/C=C/C(=O)O	0.024
COc1cc(OC)c(S(=O)(=O)N2c3ccccc3CCC2C)cc1NC(=O)CCc1nn[nH]n1 (stereo not drawn)	0.0647
Cc1cn([C@H]2CCCN(S(=O)(=O)c3cccc(Oc4ccccc4)c3)C2)c(=O)[nH]c1=O	0.0262
COc1ccc(S(=O)(=O)N2CCC[C@H](n3cc(C)c(=O)[nH]c3=O)C2)cc1Oc1cccc(Cl)c1	0.0251
COCCNC(=O)c1ccc(Nc2ncc3cc(-c4ccncc4C)ccc3n2)cc1	0.0139
COCCNC(=O)c1ccc(Nc2ncc3cc(-c4cnccc4C)ccc3n2)cc1	0.0262
CN(C)CCNC(=O)c1ccc(Nc2ncc3cc(-c4ccncc4)ccc3n2)cc1	0.0111
COc1cccc(OC)c1OCCNCC1COc2ccccc2O1 (stereo not drawn)	0.024
C[C@H](CO)Nc1nc(SCc2cccc(F)c2F)nc2[nH]ncc12	0.035
O=C(O)COn1c(-c2ccccc2)nc2ccc([N+](=O)[O-])cc21	0.0139
CCOc1cc2ncc(C(N)=O)c(Nc3cccc(Cl)c3Cl)c2cc1N1CCN(CC)CC1	0.0183
CC(C)Oc1cc2ncc(C(N)=O)c(Nc3cccc(Cl)c3F)c2cc1N1CCN(C)CC1	0.0488
CCOc1cc2ncc(C(N)=O)c(Nc3cccc(Cl)c3Cl)c2cc1N1CCCN(C)CC1	0.0163
CN1CCN(c2ccc3ncc(C(N)=O)c(Nc4ccc(Cl)c(Cl)c4)c3c2)CC1	0.0581
CN1CCN(c2ccc3ncc(C(N)=O)c(Nc4cccc(Cl)c4Cl)c3c2)CC1	0.0457
CCOc1cc2ncc(C(N)=O)c(Nc3cccc(Cl)c3Cl)c2cc1N1CCN(C(C)=O)CC1	0.0968
CCOc1cc2ncc(C(N)=O)c(Nc3ccc(F)cc3F)c2cc1N1CCCN(C2CC2)CC1	0.0219
COc1cc2ncc(C(N)=O)c(Nc3ccc(Cl)cc3Cl)c2cc1N1CCN(C)CC1	0.0321
CN1CCN(c2cc3c(Nc4cccc(Cl)c4Cl)c(C(N)=O)cnc3cc2F)CC1	0.0437
CCOc1cc2ncc(C(N)=O)c(Nc3cccc(Cl)c3Cl)c2cc1N1CCN(CCO)CC1	0.0477
CCOc1cc2ncc(C(N)=O)c(Nc3cccc(Cl)c3Cl)c2cc1N1CCN(CCOC)CC1	0.0171
CC(C)Oc1cc2ncc(C(N)=O)c(Nc3cccc(Cl)c3Cl)c2cc1N1CCN(C)CC1	0.0139
CC(C)Oc1cc2ncc(C(N)=O)c(Nc3ccc(Cl)c(Cl)c3)c2cc1N1CCN(C)CC1	0.0099
O=c1[nH]cnc2scc(-c3cccs3)c12	0.0111
O=C(Nc1cccc2cccnc12)c1ccc(N2C(=O)[C@@H]3[C@H](C2=O)[C@@H]2C=C[C@H]3C2)cc1	0.0111

Further lines, results first:

fraction unbound at 5 h	SMILES
0.0568	CCCc1cc(C2=N[C@@H](C(=O)NO)CO2)cc(OC)c1OC
0.069	Cc1cnc(Nc2nc(N[C@@H](C)c3ncc(F)cn3)nc(N3CCOCC3)c2F)s1
0.0262	Cc1cnc(Nc2cc(N3CCOCC3)nc(N[C@@H](C)c3ccc(F)cn3)n2)s1
0.0801	CN[C@@H](C)C(=O)N[C@H](C(=O)N1CCC[C@H]1C(=O)N[C@@H]1CCCc2ccccc21)C(C)(C)C
0.0948	O=C(/C=C/c1ccccc1Cl)Nc1ccc2c(c1)C(=O)NC2=O
0.0268	Cc1sc2c(c1C)c(=O)n(-c1ccc(F)cc1)c(=O)n2CC(=O)NCc1ccco1
0.0418	CCOC(=O)[C@H](CCc1ccccc1)N[C@@H](C)C(=O)N1Cc2ccccc2C[C@H]1C(=O)O
0.0274	C[C@H]1CN(Cc2cc(Cl)ccc2OCC(=O)O)CCN1S(=O)(=O)c1ccccc1
0.0224	CC(C)(C)COc1ccc(-n2cc(C(=O)O)cn2)cc1C#N
0.0229	O=C(CN1CCCC1)N1c2ccccc2Sc2ccc(C(F)(F)F)cc21
0.0568	CC(C)c1ccc(/C=N/NC(=O)c2ccc(O)cc2)cc1
0.0676	CN[C@@H](C)C(=O)N[C@H](C(=O)N[C@H]1CCCN([C@@H]2CCCc3ccccc32)C1)C1CCCCC1
0.0784	CN[C@@H](C)C(=O)N[C@H](C(=O)N[C@H]1CCCN(CCc2ccc(F)cc2)C1)C(C)(C)C
0.0293	COc1cc(OC)c(S(=O)(=O)N2c3ccccc3CCC2C)cc1NC(=O)CSc1ccncc1 (stereo not drawn)
0.0872	COc1cc(OC)c(S(=O)(=O)NCc2ccccc2N2CCC(CC(=O)O)CC2)cc1NC(=O)CCC(=O)O
0.069	Cc1nccn1-c1ccc(Sc2cccc(C3(C(N)=O)CCOCC3)c2)cc1
0.013	COc1ccc(-c2nc3c(NCCCNC(=O)c4cccnc4)c(Br)cnc3[nH]2)cc1
0.0119	CC(C)COc1cccc(/C=C2\SC(=O)NC2=O)c1N1CCC[C@@H](N)C1
0.0437	CCNC(=O)c1cc2c(-n3ccc(C(F)(F)F)n3)c(-c3cncc(-c4n[nH]c(=O)o4)c3)cnc2[nH]1
0.0262	CC(=O)Nc1ccc2c(c1)N(c1cc(NC3CC3)n3ncc(C#N)c3n1)CCC2
0.0488	COc1cnc(-c2ccccn2)nc1N1CCCCC1

fraction unbound at 5 h	SMILES
0.0358	CCN(Cc1cccc2ccccc12)c1cc(N2CCOCC2)nc(=O)[nH]1
0.0374	CC(C)COc1ccc(-c2cc(=O)[nH]c(N)n2)cc1
0.0409	CC(C)COc1ccc(-c2cc(=O)[nH]c(N)n2)cc1C#N
0.0099	COc1cc(OC)c(S(=O)(=O)N2c3ccccc3Oc3ccccc32)cc1NC(=O)Cc1ccnc(F)c1
0.0568	Cc1cccc(Oc2cc(S(=O)(=O)N3CCC[C@H](n4cc(C)c(=O)[nH]c4=O)C3)ccc2C(=O)O)c1
0.0229	Cc1cn([C@H]2CCCN(S(=O)(=O)c3ccc(C#N)c(Oc4cccc(Cl)c4)c3)C2)c(=O)[nH]c1=O
0.028	c1cc(-c2ccc3nc(Nc4ccc(OCCN5CCCC5)cc4)ncc3c2)ccn1
0.0119	Cc1ncc(NC(=O)c2cc(NC(=O)c3cccc(C(F)(F)F)c3)ccc2C)s1
0.0736	CCOc1cc2ncc(C(N)=O)c(Nc3cc(F)ccc3F)c2cc1N1CCN(C)CC1
0.0146	CCOc1cc2ncc(C(N)=O)c(Nc3cccc(Cl)c3Cl)c2cc1N1CCN(C(C)C)CC1
0.0447	COc1cc2ncc(C(N)=O)c(Nc3cccc(Cl)c3Cl)c2cc1N1CCN(C)CC1
0.0171	CC(C)Oc1cc2ncc(C(N)=O)c(Nc3ccc(F)cc3F)c2cc1N1CCN(C)CC1
0.0358	COc1cc2ncc(C(N)=O)c(Nc3ccc(Cl)c(Cl)c3)c2cc1N1CCN(C)CC1
0.0836	CCOc1cc2ncc(C(N)=O)c(Nc3ccc(F)cc3F)c2cc1N1CCOCC1
0.0343	CCOc1cc2ncc(C(N)=O)c(Nc3ccc(F)c(Cl)c3)c2cc1N1CCN(C)CC1
0.0209	COc1cc2ncc(C(N)=O)c(Nc3cccc(Cl)c3Cl)c2cc1NCCN1CCCCC1
0.0457	CCOc1cc2ncc(C(N)=O)c(Nc3ccc(F)cc3F)c2cc1N1CCN(CC)CC1
0.0139	O=C(Nc1ccc(CCO)cc1)c1cc2cc(Cl)ccc2[nH]1
0.0099	Cc1nc(C(F)(F)F)ccc1C(=O)Nc1ccc(Cl)c(-c2ccccn2)c1
0.0358	CN1CCN(C2=Nc3ccccc3Nc3ccc(OS(=O)(=O)C(F)(F)F)cc32)CC1

Source: ChEMBL document CHEMBL3301361, “Experimental in vitro DMPK and physicochemical data on a set of publicly disclosed compounds”
